Data reported in patent publication US20140248254A1, “THE USE OF ACHE AS NUCLEASE” (priority 2011, published 2014).

Target: T1, DNase activity of AChE (Homo AChE protein) (Homo sapiens, UniProt P22303)
T1 construct: AChE 1-547AA corresponding to human; AChE1-548AA corresponding to mouse; made in house
Assay: Effect of metal cations and chelators on DNase activity of Homo AChE
Assay type: biochemical
Settings: 2.5 mM CaCl2, 5 mM MgCl2, 0.5 mM EGTA, 0.5 mM EDTA; 6 h
Description: A. In the presence of 2.5 mM CaCl2, 5 mM MgCl2, 0.5 mM EGTA, 0.5 mM EDTA or the combination thereof, plasmid DNA (pEGFP-C1 plasmid) was incubated with Homo AChE protein for 6 h.
Purified plasmid DNA was used as substrate for detection. In the experiment of cleaving of plasmid DNA, 0.15 μg of plasmid DNA with a transfection-grade purity (pEGFP-C1 plasmid, Clotech) was added to 10 μl buffer system containing (5.0 mM Tris-HCl, PH 7.5; 2.5 mM CaCl2; 5.0 mM MgCl2). 1 μg (or an amount indicated in Examples) of purified AChE proteins of human or mouse origin (AChE 1-547AA corresponding to human; AChE1-548AA corresponding to mouse) was further added, and incubated in 37° C. Sampling at 6 h (or timepoints indicated in Examples).

T1 sequence (P22303 32-578): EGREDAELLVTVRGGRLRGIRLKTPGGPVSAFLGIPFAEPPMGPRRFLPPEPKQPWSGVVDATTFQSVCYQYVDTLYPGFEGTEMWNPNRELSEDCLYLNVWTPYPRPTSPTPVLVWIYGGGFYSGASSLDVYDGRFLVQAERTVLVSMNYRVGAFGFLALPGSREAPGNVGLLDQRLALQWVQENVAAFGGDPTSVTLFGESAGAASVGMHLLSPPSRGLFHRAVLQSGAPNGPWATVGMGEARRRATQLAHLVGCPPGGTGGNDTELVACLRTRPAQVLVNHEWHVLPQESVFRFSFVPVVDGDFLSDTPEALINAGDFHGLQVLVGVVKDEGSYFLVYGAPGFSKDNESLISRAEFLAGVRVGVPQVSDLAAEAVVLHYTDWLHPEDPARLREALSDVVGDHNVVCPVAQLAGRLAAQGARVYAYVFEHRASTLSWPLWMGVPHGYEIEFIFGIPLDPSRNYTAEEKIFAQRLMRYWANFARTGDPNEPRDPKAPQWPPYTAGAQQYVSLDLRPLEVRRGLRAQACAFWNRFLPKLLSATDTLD

| Compound | effect on activity of AChE cleaving DNA |
| --- | --- |
| O=C(O)CN(CCN(CC(=O)O)CC(=O)O)CC(=O)O [EDTA] | significantly inhibited |
| O=C(O)CN(CCOCCOCCN(CC(=O)O)CC(=O)O)CC(=O)O [EGTA] | not obvious |
